Experimental data: article PMC7177888, “Aryl-4,5-dihydro-1H-pyrazole-1-carboxamide Derivatives Bearing a Sulfonamide Moiety Show Single-digit Nanomolar-to-Subnanomolar Inhibition Constants against the Tumor-associated Human Carbonic Anhydrases IX and XII” (International Journal of Molecular Sciences, 2020)
Like-named read-outs stand apart in the source and are kept apart here.

Columns and labels:
Assay in all cases: stopped-flow CO2 hydrase assay
Assay type in all cases: biochemical
[1] = molecular target: T1, CA VII (Homo sapiens, UniProt P43166)
T1 construct: gene CA7; recombinant, obtained in-house
Outline: (§1)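 Ki values were derived by nonlinear least squares using the Cheng–Prusoff equation, applied to initial rates after subtraction of the uncatalysed rate. Values are means of at least three determinations of CO2 hydration by recombinant human carbonic anhydrase isoforms made in-house, measured by stopped-flow (Applied Photophysics) at 557 nm for 10–100 s in 20 mM Hepes (pH 7.5) with 20 mM Na2SO4, 0.2 mM phenol red and 1.7–17 mM CO2. Before the reaction, enzyme and inhibitor were preincubated for 15 min at room temperature.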

[2] = molecular target: T2, CA I (Homo sapiens, UniProt P00915)
T2 construct: gene CA1; recombinant, obtained in-house
Outline: as §1

[3] = molecular target: T3, CA IX (Homo sapiens, UniProt Q16790)
T3 construct: gene CA9; recombinant, obtained in-house
Outline: as §1

[4] = molecular target: T4, CA II (Homo sapiens, UniProt P00918)
T4 construct: gene CA2; recombinant, obtained in-house
Outline: as §1

[5] = molecular target: T5, CA XII (Homo sapiens, UniProt O43570)
T5 construct: gene CA12; recombinant, obtained in-house
Outline: as §1

T1 sequence (P43166 whole entry): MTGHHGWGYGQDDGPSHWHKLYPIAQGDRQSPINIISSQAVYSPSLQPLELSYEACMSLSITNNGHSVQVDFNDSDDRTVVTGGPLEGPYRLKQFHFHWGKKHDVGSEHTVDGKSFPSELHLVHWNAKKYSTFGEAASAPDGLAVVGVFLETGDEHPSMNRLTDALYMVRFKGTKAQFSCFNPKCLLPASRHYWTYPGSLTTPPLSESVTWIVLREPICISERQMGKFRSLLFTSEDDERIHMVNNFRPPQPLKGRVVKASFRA
T2 sequence (P00915 2-261): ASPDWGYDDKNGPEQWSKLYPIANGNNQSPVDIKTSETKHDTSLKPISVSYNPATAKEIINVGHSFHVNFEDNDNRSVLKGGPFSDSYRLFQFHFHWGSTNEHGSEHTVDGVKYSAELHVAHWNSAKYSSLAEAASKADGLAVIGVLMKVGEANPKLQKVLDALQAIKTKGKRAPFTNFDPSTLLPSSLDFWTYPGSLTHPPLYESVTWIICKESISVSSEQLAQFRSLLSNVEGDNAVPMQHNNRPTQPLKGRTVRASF
T5 sequence (O43570 25-354): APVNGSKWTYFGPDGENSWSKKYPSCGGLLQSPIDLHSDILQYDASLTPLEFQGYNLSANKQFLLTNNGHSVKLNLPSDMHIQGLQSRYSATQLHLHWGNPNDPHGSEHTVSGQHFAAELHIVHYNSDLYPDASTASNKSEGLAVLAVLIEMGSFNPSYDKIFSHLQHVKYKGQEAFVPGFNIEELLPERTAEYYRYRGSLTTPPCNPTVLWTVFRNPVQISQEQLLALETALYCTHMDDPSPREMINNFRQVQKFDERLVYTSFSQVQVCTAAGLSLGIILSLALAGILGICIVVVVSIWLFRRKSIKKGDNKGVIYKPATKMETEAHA

SMILES | Ki [1] [nM] | Ki [2] [nM] | Ki ([3]; read-out: KI (nM) / CA IX) [nM] | Ki [4] [nM] | Ki [5] [nM] | Ki ([3]; read-out: KI (nM) / CA II) [nM]
NS(=O)(=O)c1ccc(NC(=O)N2N=C(c3ccccc3)CC2c2ccccc2)cc1 (stereo not drawn) [compound 5, 3,5-Diphenyl-4,5-dihydro-pyrazole-1-carboxylic acid (4-sulfamoyl-phenyl)-amide] | 33.2 | 382 | 1.3 | 67.3 | 7.7 | –
NS(=O)(=O)c1ccc(NC(=O)N2N=C(c3ccccc3)CC2c2ccc(Cl)cc2)cc1 (stereo not drawn) [compound 6, 5-(4-Chlorophenyl)-3-phenyl-4,5-dihydro-pyrazole-1-carboxylic acid (4-sulfamoyl-phenyl)-amide] | 7.7 | 36.2 | 1.4 | 8.2 | 1.2 | –
NS(=O)(=O)c1ccc(NC(=O)N2N=C(c3ccccc3)CC2c2ccc(F)cc2)cc1 (stereo not drawn) [compound 7, 5-(4-Flurophenyl)-3-phenyl-4,5-dihydro-pyrazole-1-carboxylic acid (4-sulfamoyl-phenyl)-amide] | 2.3 | 252 | 1.5 | 58.2 | 6.3 | –
NS(=O)(=O)c1ccc(NC(=O)N2N=C(c3ccccc3)CC2c2c(F)cccc2Cl)cc1 (stereo not drawn) [compound 8, 5-(2-Chloro-6-fluorophenyl)-3-phenyl-4,5-dihydro-pyrazole-1-carboxylic acid (4-sulfamoyl-phenyl)-amide] | 2.4 | 38.3 | 1.5 | 5.2 | 1.4 | –
NS(=O)(=O)c1ccc(NC(=O)N2N=C(c3ccccc3)CC2c2cccs2)cc1 (stereo not drawn) [compound 9, 3-Phenyl-5-thiophene-2-yl-4,5-dihydro-pyrazole-1-carboxylic acid (4-sulfamoyl-phenyl)-amide] | 1.9 | 185 | 1.4 | 5.2 | 2.5 | –
NS(=O)(=O)c1ccc(NC(=O)N2N=C(c3ccccc3)CC2c2c3ccccc3cc3ccccc23)cc1 (stereo not drawn) [compound 10, 5-Anthracene-9-yl-3-phenyl-4,5-dihydro-pyrazole-1-carboxylic acid (4-sulfamoyl-phenyl)-amide] | 2.4 | 293 | 1.3 | 7.1 | 6.8 | –
NS(=O)(=O)c1ccc(NC(=O)N2N=C(c3ccccc3)CC2c2ccc(Cl)cc2Cl)cc1 (stereo not drawn) [compound 11, 5-(2,4-Dichlorophenyl)-3-phenyl-4,5-dihydro-pyrazole-1-carboxylic acid (4-sulfamoyl-phenyl)-amide] | 2.5 | 39.5 | 1.4 | 5.4 | 0.84 | –
NS(=O)(=O)c1ccc(NC(=O)N2N=C(c3ccc(Cl)cc3)CC2c2ccccc2)cc1 (stereo not drawn) [compound 12, 3-(4-Chlorophenyl)-5-phenyl-N-(4-sulfamoylphenyl)-4,5-dihydro-1H-pyrazole-1-carboxamide] | 350 | 239 | 16.5 | 233 | 9.2 | –
Cc1ccc(C2CC(c3ccc(Cl)cc3)=NN2C(=O)Nc2ccc(S(N)(=O)=O)cc2)cc1 (stereo not drawn) [compound 13, 3-(4-Chlorophenyl)-N-(4-sulfamoylphenyl)-5-(p-tolyl)-4,5-dihydro-1H-pyrazole-1-carboxamide] | 4.5 | 66.7 | 2.9 | 12.3 | 9.2 | –
NS(=O)(=O)c1ccc(NC(=O)N2N=C(c3ccc(Cl)cc3)CC2c2ccc(Cl)cc2)cc1 (stereo not drawn) [compound 14, 3,5-Bis(4-chlorophenyl)-N-(4-sulfamoylphenyl)-4,5-dihydro-1H-pyrazole-1-carboxamide] | 3.3 | 238 | 11.4 | 12.7 | 1.1 | –
NS(=O)(=O)c1ccc(NC(=O)N2N=C(c3ccc(Cl)cc3)CC2c2ccc(F)cc2)cc1 (stereo not drawn) [compound 15, 3-(4-Chlorophenyl)-5-(4-fluorophenyl)-N-(4-sulfamoylphenyl)-4,5-dihydro-1H-pyrazole-1-carboxamide] | 3.2 | 617 | 2.7 | 71.3 | 1 | –
NS(=O)(=O)c1ccc(NC(=O)N2N=C(c3ccc(Cl)cc3)CC2c2ccccc2Cl)cc1 (stereo not drawn) [compound 16, 5-(2-Chlorophenyl)-3-(4-chlorophenyl)-N-(4-sulfamoylphenyl)-4,5-dihydro-1H-pyrazole-1-carboxamide] | 4.3 | 297 | – | 8.8 | 1.7 | 8
NS(=O)(=O)c1ccc(NC(=O)N2N=C(c3ccc(Cl)cc3)CC2c2ccc(Cl)cc2Cl)cc1 (stereo not drawn) [compound 17, 3-(4-Chlorophenyl)-5-(2,4-dichlorophenyl)-N-(4-sulfamoylphenyl)-4,5-dihydro-1H-pyrazole-1-carboxamide] | 27.6 | 770 | 15 | 13.5 | 1.3 | –
NS(=O)(=O)c1ccc(NC(=O)N2N=C(c3ccc(Cl)cc3)CC2c2cccs2)cc1 (stereo not drawn) [compound 18, 3-(4-Chlorophenyl)-N-(4-sulfamoylphenyl)-5-(thiophen-2-yl)-4,5-dihydro-1H-pyrazole-1-carboxamide] | 2.9 | 726 | 2.5 | 9.2 | 0.62 | –
NS(=O)(=O)c1ccc(NC(=O)N2N=C(c3ccc(Cl)cc3)CC2c2c(F)cccc2Cl)cc1 (stereo not drawn) [compound 19, 5-(2-Chloro-6-fluorophenyl)-3-(4-chlorophenyl)-N-(4-sulfamoylphenyl)-4,5-dihydro-1H-pyrazole-1-carboxamide] | 2.3 | 42.7 | 2.7 | 10.8 | 6.8 | –
NS(=O)(=O)c1ccc(NC(=O)N2N=C(c3ccc(Cl)cc3)CC2c2ccccc2O)cc1 (stereo not drawn) [compound 20, 3-(4-Chlorophenyl)-5-(2-hydroxyphenyl)-N-(4-sulfamoylphenyl)-4,5-dihydro-1H-pyrazole-1-carboxamide] | 2.1 | 74.2 | 76.6 | 7.6 | 0.99 | –
COc1ccc(C2CC(c3ccc(Cl)cc3)=NN2C(=O)Nc2ccc(S(N)(=O)=O)cc2)cc1 (stereo not drawn) [compound 21, 3-(4-Chlorophenyl)-5-(4-methoxyphenyl)-N-(4-sulfamoylphenyl)-4,5-dihydro-1H-pyrazole-1-carboxamide] | 2.7 | 368 | 2.8 | 9.4 | 0.82 | –
COc1ccc(C2CC(c3ccc(Cl)cc3)=NN2C(=O)Nc2ccc(S(N)(=O)=O)cc2)cc1OC (stereo not drawn) [compound 22, 3-(4-Chlorophenyl)-5-(3,4-dimethoxyphenyl)-N-(4-sulfamoylphenyl)-4,5-dihydro-1H-pyrazole-1-carboxamide] | 2.3 | 166 | 2.2 | 9.3 | 1.5 | –
NS(=O)(=O)c1ccc(NC(=O)N2N=C(c3ccc(Br)cc3)CC2c2ccccc2)cc1 (stereo not drawn) [compound 23, 3-(4-Bromophenyl)-5-phenyl-45-dihydro-pyrazole-1-carboxylic acid (4-sulfamoyl-phenyl)-amide] | 2.9 | 44.4 | 1.4 | 6.3 | 6.7 | –
NS(=O)(=O)c1ccc(NC(=O)N2N=C(c3ccc(Br)cc3)CC2c2ccc(Cl)cc2)cc1 (stereo not drawn) [compound 24, 3-(4-Bromophenyl)-5-(4-chlorophenyl)-4,5-dihydro-pyrazole-1-carboxylic acid (4-sulfamoyl-phenyl)-amide] | 2.7 | 45.5 | 14.3 | 10.7 | 0.89 | –
NS(=O)(=O)c1ccc(NC(=O)N2N=C(c3ccc(Br)cc3)CC2c2ccc(F)cc2)cc1 (stereo not drawn) [compound 25, 3-(4-Bromophenyl)-5-(4-flurophenyl)-4,5-dihydro-pyrazole-1-carboxylic acid (4-sulfamoyl-phenyl)-amide] | 2.6 | 38.2 | 1.4 | 5.5 | 2.4 | –
